Literature values as cited in PubChem BioAssay AID1259409 (Chemical Carcinogenesis Research Information System (CCRIS), 2018).

Tested on: rodent chemically induced tumor inhibition, incidence and multiplicity
Assay: CCRIS tumor inhibitor studies
[1] = Carcinogen: BENZO[A]PYRENE, 50-32-8, Dose [Inhibitor]: 0.03 MMOL/G OF DIET DAILY STARTING 7 D BEFORE AND CONTINUING THROUGH 3 D AFTER CARCINOGEN TREATMENT FOLLOWED BY OBSERVAT, Route [Inhibitor]: ORAL, Species: MOUSE, Strain/Sex: ICR/FEMALE, Target Tissue: Type of Lesion: FORESTOMACH: NEOPLASM, Dose [Carcinogen]: 1 MG IN 0.2 ML CORN OIL 2/WK FOR 4 WK, Promoter: NONE USED

For CC1CCC(=O)O1 (stereo unspecified), the “tumour outcome (control, treated, inhibition, significance)” value (Carcinogen: BENZO[A]PYRENE, 50-32-8, Dose [Inhibitor]: 0.034 MMOL/G IN DIET FOR 5 WK BEGINNING 1 WK PRIOR TO CARCINOGEN DOSE (STUDY DURATION: 21 WK), Route [Inhibitor]: ORAL, Species: MOUSE, Strain/Sex: ICR/FEMALE, Target Tissue: Type of Lesion: FORESTOMACH: TUMOR, Dose [Carcinogen]: 1 MG IN 0.2 ML CORN OIL 2/WK FOR 4 WK, Promoter: NONE USED) is listed as “(95%, 95%, 0%, not significant”.

For C[C@]12C[C@H](O)[C@H]3[C@@H](CCC4=CC(=O)CC[C@@]43C)[C@@H]1CC[C@@H]2C(=O)CO, the “tumour outcome (control, treated, inhibition, significance)” value (Dose [Inhibitor]: 0, 1.5 MG 2/WK FOR 10 WK (STUDY DURATION: 65 WK), Route [Inhibitor]: INTRAMUSCULAR, Species: RAT, Strain/Sex: F344/MALE, Target Tissue: Type of Lesion: LIVER: HEPATOCELLULAR CARCINOMA, Dose [Carcinogen]: 100 UG 2/WK FOR 10 WK, Promoter: NONE USED) is given as 12/13 (92%), 12/23 (52%), 43%, p<0.02.

In the case of CC(=O)Oc1c(C)c(C)c2c(c1C)CCC(C)(CCCC(C)CCCC(C)CCCC(C)C)O2 (stereo unspecified), the “tumour outcome (control, treated, inhibition, significance)” value (Carcinogen: 7,12-DIMETHYLBENZ[A]ANTHRACENE, 57-97-6, Dose [Inhibitor]: 1000 MG/KG IN 20% CORN OIL DIET DAILY STARTING 2 WK BEFORE CARCINOGEN TREATMENT AND CONTINUING FOR DURATION OF STUDY (ST, Route [Inhibitor]: ORAL, Species: RAT, Strain/Sex: SPRAGUE-DAWLEY/FEMALE, Target Tissue: Type of Lesion: MAMMARY GLAND: ADENOCARCINOMA, Dose [Carcinogen]: 10 MG ONCE AT AGE 50 D) is given as 28/30 (93%), 27/30 (90%), 3%, not significant, the “tumour outcome (control, treated, inhibition, significance)” value (Carcinogen: UV-B IRRADIATION, Dose [Inhibitor]: 25, 100 UG/KG IN DIET FOR DURATION OF STUDY BEGINNING 3 WK PRIOR TO IRRADIATION (STUDY DURATION: 40 WK), Route [Inhibitor]: ORAL, Species: MOUSE, Strain/Sex: C3H/HEN/FEMALE, Target Tissue: Type of Lesion: SKIN: TUMOR, Dose [Carcinogen]: 6.4 J/M2/SEC 30 MIN/D 5 D/WK FOR 13 WK , IRRADIATION DISCONTINUED FOR 3 WK DUE TO TOXICITY THEN IT WAS RESUMED FOR 2 WK, Promoter: NONE USED) is given as 67%, 46%, 31%, not calculated and the “tumour outcome (control, treated, inhibition, significance)” value (Carcinogen: UV-B IRRADIATION, Dose [Inhibitor]: 25, 200 UG/KG IN DIET FOR DURATION OF STUDY BEGINNING 3 WK PRIOR TO IRRADIATION (STUDY DURATION: 40 WK), Route [Inhibitor]: ORAL, Species: MOUSE, Strain/Sex: C3H/HEN/FEMALE, Target Tissue: Type of Lesion: SKIN: TUMOR, Dose [Carcinogen]: 6.4 J/M2/SEC 30 MIN/D 5 D/WK FOR 13 WK, IRRADIATION DISCONTINUED FOR 3 WK DUE TO TOXICITY THEN IT WAS RESUMED FOR 2 WK, Promoter: NONE USED) is given as 67%, 19%, 72%, not calculated.

In the case of Clc1ccccc1C(c1ccccc1)(c1ccccc1)n1ccnc1, the “tumour outcome (control, treated, inhibition, significance)” value (Carcinogen: 3-METHYLCHOLANTHRENE, 56-49-5, Dose [Inhibitor]: 0, 2.9 UMOL IN 0.1 ML ACETONE 1 HR PRIOR TO CARCINOGEN DOSE 2/WK FOR 16 WK (STUDY DURATION: 16 WK), Route [Inhibitor]: DERMAL, Species: MOUSE, Strain/Sex: BALB/FEMALE, Target Tissue: Type of Lesion: SKIN: TUMORS, Dose [Carcinogen]: 1.8 UMOL IN 0.2 ML ACETONE 2/WK FOR 16 WK, Promoter: NONE USED) is listed as 100%, 70%, 30%, p<0.05.

For O=C(O)c1ccc(-c2c3nc(c(-c4ccc(C(=O)O)cc4)c4ccc([nH]4)c(-c4ccc(C(=O)O)cc4)c4ccc([nH]4)c(-c4ccc(C(=O)O)cc4)c4nc2C=C4)C=C3)cc1, the “tumour outcome (control, treated, inhibition, significance)” value (Carcinogen: 7,12-DIMETHYLBENZ[A]ANTHRACENE [57-97-6], Dose [Inhibitor]: 0, 0.1% IN 0.2 ML DMSO-ACETONE (15:85, V/V) 2X/WK FOR 30 WK 10 MIN PRIOR TO PROMOTER DOSE (STUDY DURATION: 31 WK), Route [Inhibitor]: DERMAL, Species: MOUSE, Strain/Sex: ICR/FEMALE, Target Tissue: Type of Lesion: SKIN: PAPILLOMA, Dose [Carcinogen]: 0.2 UMOL ONCE (STUDY DURATION: 31 WK), Promoter: 12-O-TETRADECANOYLPHORBOL-13-ACETATE [16561-29-8]) is listed as 100%, 73%, 27%, not calculated.

In the case of CCCCCCCCCCCCCCCCCCCCCCCCCCCCOC(=O)/C=C/c1ccc(O)c(OC)c1, the “tumour outcome (control, treated, inhibition, significance)” value (Carcinogen: 7,12-DIMETHYLBENZ[A]ANTHRACENE, 57-97-6, Dose [Inhibitor]: 0, 2 UMOL IN ACETONE/DMSO (9:1) 2/WK FOR 20 WK BEGINNING 1 WK POST CARCINOGEN DOSE (STUDY DURATION: 20 WK), Route [Inhibitor]: DERMAL, Species: MOUSE, Strain/Sex: ICR/FEMALE, Target Tissue: Type of Lesion: SKIN: PAPILLOMA, Dose [Carcinogen]: 50 UG ONCE, Promoter: 12-O-TETRADECANOYLPHORBOL-13-ACETATE, 16561-29-8) is given as 100%, 20%, 80%, not calculated.

For CCCC/C=C\C=C/O[C@@H](CC)CCC(CCC)CCCCCCCC(=O)O[C@]1(O)[C@]2(O)O[C@H](CO[C@H]3O[C@H](CO)[C@H](O)[C@H](O)[C@H]3O)[C@H](O)[C@@]1(O)O2 (stereo partly specified), the “tumour outcome (control, treated, inhibition, significance)” value (Carcinogen: 7,12-DIMETHYLBENZ[A]ANTHRACENE, 57-97-6, Dose [Inhibitor]: 0, 85 NMOL IN 0.1 ML ACETONE 2/WK FOR 20 WK APPLIED 1 HR PRIOR TO EACH PROMOTER DOSE (STUDY DURATION: 21 WK), Route [Inhibitor]: DERMAL, Species: MOUSE, Strain/Sex: ICR/FEMALE, Target Tissue: Type of Lesion: SKIN: PAPILLOMA, Dose [Carcinogen]: 390 NMOL IN 0.1 ML ACETONE ONCE, Promoter: 12-O-TETRADECANOYLPHORBOL-13-ACETATE, 16561-29-8) is given as 100%, 68%, 32%, p<0.05.

For CC(C)(C)c1cc(-c2cc(C(C)(C)C)c(O)c(C(C)(C)C)c2)cc(C(C)(C)C)c1O, the “tumour outcome (control, treated, inhibition, significance)” value [1] is given as 90%, 89%, 1%, not significant.

In the case of CC(C)(C)c1cc(C(C)(C)C)c(O)cc1O, the “tumour outcome (control, treated, inhibition, significance)” value [1] is listed as 94%, 100%, -6%, not significant.
